Source: patent US20130004477A1, “Methods for Treating Inflammation and Oxidative Stress Related Diseases” (priority 2009, published 2013)
Like-named read-outs stand apart in the source and are kept apart here.

Legend:
healthy volunteers = details: Phase 1 single-dose; cited from earlier work
Neuro-2A cells = details: GO 10 mU/ml, MPO 1 U/ml
Method: (§1) (the number of independent trials is indicated in parentheses).
(§2) Four types of cell, Calu-3, Min6 (58), Neuro-2A, and HAEC (Invitrogen Inc.) were plated in 48-well culture plates (3.5×10^4 to 2×10^5 per well). Twenty-four to forty-eight hours later, cells were washed with Earl's balanced salt solution (EBSS) before subsequent studies. EBSS contained: NaCl (116 mM), glucose (5.5 mM), KCl (5.4 mM), CaCl2 (1.8 mM), MgSO4 (2.2 mM), NaH2PO4 (1 mM), and NaHCO3 (26 mM); pH 7.0. […] LPO (1 U/ml) and NaSCN (100 or 400 μM) were added to protect cells from injuries caused by H2O2. For the MPO studies, cells were first incubated for one hour in EBSS containing MPO (1 U/ml). The MPO reaction was initiated by adding 10 mU/ml GO to generate H2O2, and cells were maintained in a 37° C. incubator (5% CO2) for three additional hours. […] After incubation, cells were trypsinized, pelleted, and resuspended in a phosphate buffer solution (PBS), which contains NaCl (137 mM), KCl (2.7 mM), Na2HPO4 (4.3 mM) and KH2PO4 (1.4 mM); pH 7.3. Non-viable cells were identified by staining with 0.2% Trypan blue (Invitrogen, Inc.). Both stained and unstained cells were counted with a hemocytometer in double blind experiments.

Min6 cells = details: 400 μM SCN^−; GO 10 mU/ml, MPO 1 U/ml
Method: as §1, §2

[1] = test system: human aortic endothelial cells (HAEC); details: 400 μM SCN^−; GO 5 mU/ml, MPO 1 U/ml
Method: as §1, §2

CF mice = test system: CF mice
Method: Mouse pups, weaned at day ˜28, had access to drinking water and solid mouse food. […] All pictures were taken at the same magnification (20× objective). […] In panels C and F, the green, yellow and black arrows point to a villus, a goblet cell and a mucus plug, respectively.
The body length (A) and weight (B) (mean±s.e.m.) of CF and heterozygous mice were determined 30, 60, and 90 days after weaning
FIGS. 7B-G, show standard Alcian Blue-stained (5 μm-thick) sections of large (FIG. 7B-D) and small (FIG. 7E-G) intestines (Alcian Blue specifically stains mucin; http://www.protocol-online.org).
Mouse pups, weaned at day ˜28, had access to drinking water and solid mouse food. […] In FIGS. 7C and 7F, the green, yellow and black arrows point to a villus, a goblet cell and a mucus plug, respectively.
The body length (A) and weight (B) (mean±s.e.m.) of CF and heterozygous mice were determined 30, 60, and 90 days after.

MPO = MPO (Homo sapiens, UniProt P05164); details: 1 U/ml MPO, 100 mM Cl^−, 5 minutes
Method: Reaction mixtures contained MPO (1 U/ml), NaCl (100 mM), NaSCN (0-400 μM), and sodium phosphate (100 mM, pH 7.0). Reactions were initiated by adding 50 μM H2O2 to the mixture, and stopped 5 minutes later by adding 1 μM catalase to decompose remaining H2O2 to H2O and O2. Blank reactions contained no H2O2. The concentrations of OCl^− and OSCN^−were determined using the taurine chloramine assay. OCl^− and OSCN^− react with taurine to form taurine chloramine. The latter oxidizes yellow 5-thio-2-nitrobenzoic acid (ε412=14,100 M^−1 cm^−1) to colorless 5,5′-dithiobis-2-nitrobenzoic acid. The drop in absorbance at 412 nm (after subtracting the blank) reflects the total concentration of OCl^− plus OSCN^− produced. […] Methionine was added immediately after the addition of catalase but 5 minutes before the taurine chloramine assay. This five minute interval allowed methionine to reduce OCl^−. Unless specified otherwise, all reagents were purchased from Sigma-Aldrich.

[2] = non-enzymatic reaction; cited from earlier work
Calu-3 cells = assay: Cell viability assay: H2O2 cytotoxicity in Calu-3 cells; format: cell-based, human; details: SCN^− alone, GO 20 mU/ml
Method: as §1, §2

CFTR = target: T1, CFTR (Homo sapiens, UniProt P13569, G551D); details: CF patients with at least one copy of the G551D mutation; Phase II; cited from earlier work
T1 construct: endogenous in cells; host or cells: CF patients (nasal epithelium, sweat glands, lungs)

CF patients = details: high doses; cited from earlier work
[3] = 1 mM thiocyanate in drinking water, 30, 60, 90 days after weaning
[4] = single dose of thiocyanate (1 mM)

MPO, sequence (P05164 49-745, species assumed): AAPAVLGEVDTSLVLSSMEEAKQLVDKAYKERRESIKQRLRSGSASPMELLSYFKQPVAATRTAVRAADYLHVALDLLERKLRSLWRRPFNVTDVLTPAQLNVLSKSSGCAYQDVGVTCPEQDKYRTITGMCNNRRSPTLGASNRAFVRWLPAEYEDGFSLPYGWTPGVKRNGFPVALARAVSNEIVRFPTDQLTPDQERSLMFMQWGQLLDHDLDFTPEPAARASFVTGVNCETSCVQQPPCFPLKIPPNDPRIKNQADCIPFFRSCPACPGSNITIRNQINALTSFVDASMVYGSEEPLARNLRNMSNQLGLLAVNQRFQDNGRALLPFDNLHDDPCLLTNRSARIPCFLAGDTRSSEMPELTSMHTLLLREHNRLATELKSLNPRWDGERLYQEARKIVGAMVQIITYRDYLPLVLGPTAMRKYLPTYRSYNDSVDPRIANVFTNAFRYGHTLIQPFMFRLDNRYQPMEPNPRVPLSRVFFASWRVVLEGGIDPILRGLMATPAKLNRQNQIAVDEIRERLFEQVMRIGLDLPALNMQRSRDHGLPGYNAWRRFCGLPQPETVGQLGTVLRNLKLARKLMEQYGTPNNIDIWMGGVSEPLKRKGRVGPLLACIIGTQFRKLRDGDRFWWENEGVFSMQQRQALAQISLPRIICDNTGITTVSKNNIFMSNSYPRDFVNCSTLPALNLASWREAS
T1 sequence (P13569 whole entry G551D): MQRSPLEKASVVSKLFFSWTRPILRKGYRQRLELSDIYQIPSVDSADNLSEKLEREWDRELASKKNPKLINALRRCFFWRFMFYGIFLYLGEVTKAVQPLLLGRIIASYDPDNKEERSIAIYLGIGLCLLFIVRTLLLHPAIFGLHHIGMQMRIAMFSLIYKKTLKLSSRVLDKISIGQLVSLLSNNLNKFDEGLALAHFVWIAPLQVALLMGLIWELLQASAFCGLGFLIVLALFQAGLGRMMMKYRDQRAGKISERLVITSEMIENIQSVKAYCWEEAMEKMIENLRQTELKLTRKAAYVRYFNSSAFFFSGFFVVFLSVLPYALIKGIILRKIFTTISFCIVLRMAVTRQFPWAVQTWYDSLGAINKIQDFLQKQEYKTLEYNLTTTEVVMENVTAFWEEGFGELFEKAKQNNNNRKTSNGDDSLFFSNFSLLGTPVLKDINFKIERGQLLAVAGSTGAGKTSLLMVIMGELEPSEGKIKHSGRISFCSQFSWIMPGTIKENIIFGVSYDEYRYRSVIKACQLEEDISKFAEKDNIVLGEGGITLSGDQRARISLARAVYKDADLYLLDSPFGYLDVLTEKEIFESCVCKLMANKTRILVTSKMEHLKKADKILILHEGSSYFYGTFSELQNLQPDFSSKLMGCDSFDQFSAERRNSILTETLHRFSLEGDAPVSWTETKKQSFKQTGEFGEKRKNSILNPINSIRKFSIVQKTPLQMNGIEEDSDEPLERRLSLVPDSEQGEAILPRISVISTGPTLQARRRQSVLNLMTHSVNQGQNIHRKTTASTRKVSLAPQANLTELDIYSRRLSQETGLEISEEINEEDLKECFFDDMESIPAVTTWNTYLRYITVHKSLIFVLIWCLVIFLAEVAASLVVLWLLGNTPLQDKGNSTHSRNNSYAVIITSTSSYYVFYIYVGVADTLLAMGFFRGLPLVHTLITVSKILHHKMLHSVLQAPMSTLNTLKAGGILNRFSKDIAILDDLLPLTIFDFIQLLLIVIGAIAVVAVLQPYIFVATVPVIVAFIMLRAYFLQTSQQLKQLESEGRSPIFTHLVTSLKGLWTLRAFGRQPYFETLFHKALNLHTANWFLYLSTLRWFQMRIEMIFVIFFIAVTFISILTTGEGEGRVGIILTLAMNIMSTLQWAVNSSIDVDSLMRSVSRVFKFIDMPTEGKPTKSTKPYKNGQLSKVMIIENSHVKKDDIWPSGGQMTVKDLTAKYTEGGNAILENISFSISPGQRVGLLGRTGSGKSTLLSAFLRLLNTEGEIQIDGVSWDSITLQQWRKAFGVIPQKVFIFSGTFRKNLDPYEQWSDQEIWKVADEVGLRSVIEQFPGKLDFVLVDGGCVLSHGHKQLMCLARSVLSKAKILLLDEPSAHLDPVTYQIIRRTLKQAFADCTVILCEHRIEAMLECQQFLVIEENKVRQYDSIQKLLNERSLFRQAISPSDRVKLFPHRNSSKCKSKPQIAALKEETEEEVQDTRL

## O=C(O)c1cccc(-c2noc(-c3ccccc3F)n2)c1 [Ataluren]
Healthy volunteers
  safety, oral availability and tolerability: safe, orally available and well tolerated

## N#CS [SCN^−, thiocyanate]
Neuro-2A cells; 100 μM SCN^−
  protection against MPO activity: virtually fully protected
Neuro-2A cells; 400 μM SCN^−
  protection against MPO activity: virtually fully protected
Min6 cells
  protection against MPO activity: virtually fully protected
[1]
  protection against MPO activity: virtually fully protected
CF mice; 1 mM thiocyanate in drinking water (mothers before weaning, pups after weaning)
  CF mice survived beyond 90 days: 10 of the 15
CF mice; [3]
  body length of CF mice: normalizes
  body weight of CF mice: normalizes
CF mice; oral thiocyanate, 1 mM in drinking water
  survival of CF mice: prolongs the survival
CF piglets; given to pig mothers during pregnancy and to piglets after birth, up to 20 mg/kg daily, with or without iodine
  protection for CF piglets: improved protection
CF piglets; [4]
  effect on meconium in CF piglets: loosening meconium
  survival of CF piglets: does not survive them
MPO; 10 μM SCN^−
  inhibition of MPO-catalyzed production of OCl^−: inhibited only slightly, if at all
MPO; 50 μM SCN^−
  inhibition of MPO-catalyzed production of OCl^−: partially inhibited
MPO
  production of OSCN^− and OCl^− with increasing SCN^− concentration: boosted the production of OSCN^− but depressed that of OCl^−
MPO; 100-400 μM SCN^−
  inhibition of MPO-catalyzed production of OCl^−: inhibited almost completely
[2]
  second-order rate constant of oxidation by OCl^− to OSCN^−: 2.3e+07 M⁻¹ s⁻¹
Calu-3 cells; 100 μM
  protection against H2O2 cell injury: Neither SCN^− (100 or 400 μM), nor LPO (1 U/ml) alone provided any significant protection
Calu-3 cells; 400 μM
  protection against H2O2 cell injury: Neither SCN^− (100 or 400 μM), nor LPO (1 U/ml) alone provided any significant protection

## CC(C)(C)c1cc(C(C)(C)C)c(NC(=O)c2c[nH]c3ccccc3c2=O)cc1O [VX-770]
CFTR
  biological measures of CFTR function (nasal potential difference and sweat chloride): improvements
  clinical measures of pulmonary health (FEV1): improvements

## CC(C)Cc1ccc(C(C)C(=O)O)cc1 (stereo not shown) [ibuprofen]
CF patients
  CF disease progression: slow disease progression
